Data as given in patent US8440697B2, “Treatment of heart failure” (Heart Metabolics Limited, priority 2007, dated 2013).

Key:
symptomatic HCM patients [1] = experiment: Side effects and deaths in HCM study; type: in vivo
Description: (§1) The study was approved by the South Birmingham Research Ethics Committee and the investigation conforms with the principles outlined in the Declaration of Helsinki All study participants provided written informed consent. The study was a randomized, double blind, placebo-controlled parallel-group design of minimum 3 months duration. FIG. 3 represents a flow chart of the study. The pre-defined primary end point was peak oxygen consumption (peak VO2). Pre-defined secondary end points were symptomatic status, resting myocardial energetics (PCr/γ-ATP ratio) and diastolic function at rest and during exercise (nTTPF).
Diabetic patients were also excluded to maintain the blindness of the study as Perhexiline may lead to a reduction in plasma glucose in such patients necessitating a reduction in anti-diabetic therapy. 46 consecutive consenting patients who met these entry criteria were recruited into the study.
(§2) Following baseline studies, patients were randomized in a double-blind fashion to receive either perhexiline (n=25) or placebo (n=21) 100 mg OD. Serum perhexiline levels were obtained at 1 and 4 weeks after initiation of the drug. Dose adjustments were advised by an unblinded physician according to serum level to achieve therapeutic level and to avoid drug toxicity. Identical dosage adjustments were also made for randomly allocated placebo-treated patients by the unblinded observer to ensure that blinding of the investigators was maintained. At the end of study, patients were re-evaluated as described earlier.

symptomatic HCM patients [2] = experiment: Symptomatic status assessment (NYHA class, Minnesota Living with heart failure questionnaire) in HCM study; type: in vivo, human
Description: as §1, with “(nTTPF). 33 controls of similar age and gender distribution were recruited for comparison with baseline data of HCM patients. All controls had no history or symptoms of any cardiovascular disease with normal ECG and echocardiogram (LVEF≧55%).” for “(nTTPF).”
(§3) Patients were recruited from dedicated cardiomyopathy clinics at The Heart Hospital, University College London Hospitals, London and Queen Elizabeth Hospital, Birmingham, UK between 2006 and 2008. Inclusion criteria were 18 to 80 years old symptomatic HCM patients (predominant symptom breathlessness) in sinus rhythm with reduced peak VO2 (<75% of predicted for age and gender) and no significant LVOT obstruction at rest (gradient<30 mmHg). Exclusion criteria were presence of epicardial coronary artery disease, abnormal liver function test, concomitant use of amiodarone or selective serotonin reuptake inhibitors (due to potential drug interactions with perhexiline), peripheral neuropathy and women of childbearing potential. Diabetic patients were also excluded to maintain the blindness of the study as Perhexiline may lead to a reduction in plasma glucose in such patients necessitating a reduction in anti-diabetic therapy. 46 consecutive consenting patients who met these entry criteria were recruited into the study.
All HCM patients filled in Minnesota Living with heart failure questionnaire and were also assessed for NHYA class.
as §2
Data were analyzed using SPSS ver. 15.0 for Window and Microsoft Office Excel 2007, and expressed as Mean±Standard Deviation (SD). Comparison of continuous variables between Perhexiline and Placebo baseline data were determined by unpaired Student's t-test (2-tail) if variables were normally distributed and the Mann-Whitney U-test if the data were non-normally distributed. ANCOVA with baseline values as covariates was performed to test for the significance of differences in the perhexiline versus placebo group after treatment. For the primary end point, the sample size required to detect a change in peak Vo2 of 3 ml/kg/min versus placebo group with a power of 90% and probability of 5% is 44. 30 patients will be required to identify a 5% change in cardiac PCr/ATP ratio with a power of 90% and a p value of <0.05. 40 patients will be required to detect a change ≧25% in nTTPF with power of 0.99 with probability of 5%. Therefore, we aimed to study 50 patients including the drop-outs, 32 of them will take part in the MRS study.

symptomatic HCM patients [3] = experiment: 31P cardiac magnetic resonance spectroscopy, resting myocardial energetics (PCr/γ-ATP ratio) in HCM study; type: in vivo, human
Description: as §1, with “(nTTPF). 33 controls of similar age and gender distribution were recruited for comparison with baseline data of HCM patients. All controls had no history or symptoms of any cardiovascular disease with normal ECG and echocardiogram (LVEF≧55%).” for “(nTTPF).”
Patients were recruited from dedicated cardiomyopathy clinics at The Heart Hospital, University College London Hospitals, London and Queen Elizabeth Hospital, Birmingham, UK between 2006 and 2008. […]
In vivo myocardial energetics were measured using a MRS at 3-Tesla Phillips Achieva 3T scanner (Shivu G N, Abozguia K, Phan T T, Ahmed I, Henning A, Frenneaux M. (31)P magnetic resonance spectroscopy to measure in vivo cardiac energetics in normal myocardium and hypertrophic cardiomyopathy: Experiences at 3T. Eur J Radiol 2008). A java magnetic resonance user interface v3.0 (jMRUI) was used for analysis (see Naressi A, Couturier C, Castang I, de Beer R, Graveron-Demilly D. Java-based graphical user interface for MRUI, a software package for quantitation of in vivo/medical magnetic resonance spectroscopy signals. Comput Biol Med 2001; 31(4):269-286)). […] Data were analyzed by an investigator who was blinded to the participants' clinical status. […]
(§4) Following baseline studies, patients were randomized in a double-blind fashion to receive either perhexiline (n=25) or placebo (n=21) 100 mg OD. […] At the end of study, patients were re-evaluated as described earlier.
Data were analyzed using SPSS ver. […]

symptomatic HCM patients [4] = experiment: Cardiopulmonary exercise test (peak oxygen consumption), randomized double-blind placebo-controlled study in HCM; type: in vivo, human
Description: as §1, with “(nTTPF). 33 controls of similar age and gender distribution were recruited for comparison with baseline data of HCM patients. All controls had no history or symptoms of any cardiovascular disease with normal ECG and echocardiogram (LVEF≧55%).” for “(nTTPF).”
as §3
This was performed using a Schiller CS-200 Ergo-Spiro exercise machine which was calibrated before every study. […]
as §4
(§5) Data were analyzed using SPSS ver. 15.0 for Window and Microsoft Office Excel 2007, and expressed as Mean±Standard Deviation (SD). Comparison of continuous variables between Perhexiline and Placebo baseline data were determined by unpaired Student's t-test (2-tail) if variables were normally distributed and the Mann-Whitney U-test if the data were non-normally distributed. […]

symptomatic HCM patients [5] = experiment: Radionuclide ventriculography, diastolic filling (nTTPF) at rest and during exercise in HCM study; type: in vivo, human
Description: as §1, with “(nTTPF). 33 controls of similar age and gender distribution were recruited for comparison with baseline data of HCM patients. All controls had no history or symptoms of any cardiovascular disease with normal ECG and echocardiogram (LVEF≧55%).” for “(nTTPF).”
Patients were recruited from dedicated cardiomyopathy clinics at The Heart Hospital, University College London Hospitals, London and Queen Elizabeth Hospital, Birmingham, UK between 2006 and 2008. Inclusion criteria were 18 to 80 years old symptomatic HCM patients (predominant symptom breathlessness) in sinus rhythm with reduced peak VO2 (<75% of predicted for age and gender) and no significant LVOT obstruction at rest (gradient<30 mmHg). […]
Diastolic filling were assessed by equilibrium R-wave gated blood pool scintigraphy using a standard technique at rest and during graded semi erect exercise on a cycle ergometer (Atherton J J, Moore T D, Lele S S et al. Diastolic ventricular interaction in chronic heart failure. Lancet 1997; 349 (9067):1720-1724; Lele S S, Macfarlane D, Morrison S, Thomson H, Khafagi F, Frenneaux M. Determinants of exercise capacity in patients with coronary artery disease and mild to moderate systolic dysfunction. Role of heart rate and diastolic filling abnormalities. Eur Heart J 1996; 17(2):204-212). Peak left ventricular filling rate in terms of end-diastolic count per second (EDC/s) and time to peak filling normalised for R—R interval (nTTPF) in milliseconds were measured at rest and during exercise (50% of heart rate reserve). […]
as §4, §5

[6] = perhexiline group (n=25), during the first week of treatment

SMILES: C1CCC(C(CC2CCCCN2)C2CCCCC2)CC1 (centres unmarked) [perhexiline, 2-(2,2-dicyclohexylethyl) piperidine]
- Side effects: dizziness (number of patients) (symptomatic HCM patients [1]; [6]): 2
- Side effects: transient nausea (number of patients) (symptomatic HCM patients [1]; [6]): 3
- Deaths during the study period (symptomatic HCM patients [1]; whole study, perhexiline and placebo groups): no deaths
- NYHA score (of breathlessness), in words (symptomatic HCM patients [2]; FIG. 5E legend): falls (improves)
- Minnesota living with heart failure questionnaire score, in words (symptomatic HCM patients [2]; FIG. 5F legend): falls (=improved quality of life)
- Minnesota Living with heart failure questionnaire score after treatment (symptomatic HCM patients [2]; perhexiline group, after treatment, fall in score = improvement, p<0.001 vs placebo): 28±0.75
- Minnesota Living with heart failure questionnaire score at baseline (symptomatic HCM patients [2]; perhexiline group, before treatment): 36.13±0.94
- Patients with worsening in NYHA classification (symptomatic HCM patients [2]; perhexiline group, placebo 20 percent): 8%
- Patients with improvements in NYHA classification (symptomatic HCM patients [2]; perhexiline group, placebo 30 percent): 67%
- Effect on PCr/ATP ratio (energetic status of heart), in words (symptomatic HCM patients [3]; FIG. 5B legend, unchanged in placebo group): improves
- PCr/γATP ratio after treatment (symptomatic HCM patients [3]; perhexiline group, resting, after treatment, p=0.003 vs placebo): 1.73±0.02
- PCr/γATP ratio at baseline (symptomatic HCM patients [3]; perhexiline group, resting, before treatment, mean±SD): 1.27±0.02
- Effect on peak VO2 (exercise capacity), in words (symptomatic HCM patients [4]; FIG. 5A legend, p=0.003 vs placebo): increases
- Peak VO2 at baseline (symptomatic HCM patients [4]; perhexiline group (n=25), before treatment, mean±SD): 22.2 ± 0.2 mL/kg/min
- Peak VO2 after treatment (symptomatic HCM patients [4]; perhexiline group, 100 mg OD titrated to serum level, minimum 3 months, p=0.003 vs placebo response): 24.29 ± 0.2 mL/kg/min
- Increase in Peak VO2 after treatment (symptomatic HCM patients [4]; perhexiline group, after treatment vs baseline, placebo fell by -1.23, p=0.003): 2.09 mL/kg/min
- Effect on nTTPF response to exercise, in words (symptomatic HCM patients [5]; FIG. 5D legend, p=0.03 vs placebo): normalises the response to similar to that seen in healthy controls
- nTTPF at rest on therapy (symptomatic HCM patients [5]; perhexiline group, on therapy, at rest): 0.19 ± 0.003 s
- nTTPF during exercise on therapy (symptomatic HCM patients [5]; perhexiline group, on therapy, exercise at 50% of heart rate reserve): 0.19 ± 0.004 s
- nTTPF change rest to exercise on therapy (symptomatic HCM patients [5]; perhexiline group, on therapy, p=0.03 between perhexiline and placebo response): 0.00 ± 0.003 s
